Results as given in publication PMC10721899, “The bactericidal and antibiofilm effects of a lysine-substituted hybrid peptide, CM-10K14K, on biofilm-forming Staphylococcus epidermidis” (Scientific Reports, 2023).
Where a name gives a salt, the structure may show the parent alone. Ends that are not written are not given here.

Legend:
[1] = tested on: S. epidermidis ATCC 35984 (biofilm-producer); assay: microbe, parasite or virus in culture; type: cell-based, Staphylococcus epidermidis; details: for MIC, minimum inhibitory concentration: MHB; for MBC, minimum bactericidal concentration: colony count from non-turbid MIC wells
Experimental: (§1) The S. epidermidis ATCC 35984 (biofilm-producer), Staphylococcus aureus ATCC 25923, Enterococcus faecalis ATCC 29219, Acinetobacter baumannii ATCC 19606, Klebsiella pneumoniae ATCC 27736 and Pseudomonas aeruginosa ATCC 27853 were grown overnight on trypticase soy agar (TSA; BD Bacto™), then subcultured in TSB and incubated at 37 °C for 16–18 h before each experiment. Stock bacterial cultures were kept frozen at − 80 °C in trypticase soy broth (TSB; BD Bacto™, USA) containing 20% glycerol.
(§2) The antimicrobial activity of peptides against S. epidermidis and five strains of both gram-positive and gram-negative bacteria frequently involved in catheter-related infections including S. aureus, E. faecalis, A. baumannii, K. pneumoniae, and P. aeruginosa was compared to that of vancomycin (Vancomycin hydrochloride, BioChemica, UK) using a modified version of the National Committee for Clinical Laboratory Standards (NCCLS) broth microdilution method. Two-fold serially diluted (0.98–250 µg/mL) aliquots of the peptides were prepared in type 1 water and added to sterile 96-well polypropylene microplates (Nunclon Delta-Treated; Thermo Scientific™, Denmark) in a volume of 50 µL, followed by the addition of 50 µL of bacterial suspensions (2–7 × 10^5 CFU/mL) in Mueller Hinton Broth (MHB; BD Difco™, USA). Uninoculated MHB and bacterial cultures without peptides were used as negative and positive controls, respectively. After culturing in an incubator shaker for 24 h at 37 °C, the lowest concentration at which the peptide inhibited bacterial growth as observed by visual inspection was taken as the minimal inhibitory concentration (MIC)[22]. Fifty microliter aliquots from each non-turbid well identified in the MIC experiment were plated on TSA for determination of minimal bactericidal concentration (MBC) by colony count assay. […] All experiments were performed in triplicate.

[2] = tested on: S. epidermidis ATCC 35984; assay: Biofilm inhibition assay, crystal violet staining; type: cell-based, Staphylococcus epidermidis
Experimental: The biofilm biomass was assessed using crystal violet staining to determine the ability of peptides to inhibit bacterial formation of biofilm ^1. Overnight S. epidermidis cultures were adjusted to an OD620 of 0.1 in TSB. An equal volume (50 µL) of bacterial suspension (~10^8 CFU/mL) was incubated with 2-fold serially diluted peptides (0.98-250 μg/mL) at 37°C for 24 h in 96-well plates. Supernatants were discarded after incubation, and wells were gently rinsed at least twice with 0.85% NaCl to remove planktonic cells. Adherent biofilms were fixed for 30 minutes with 95% ethanol, then the fixative solution was removed. The fixed biofilms were dried thoroughly and stained with addition of 150 µL of 0.1% crystal violet (CV) to each well containing biofilm, along with its respective control media. After 15 min, CV solutions were removed and wells were gently rinsed three times with 400 μL of 0.85% NaCl without disturbing the biofilm. The plates were left to dry for 30 min before adding 200 μL of 95% ethanol to each well to solubilize the bound CV with vigorous pipetting. The biofilm mass was evaluated by observing OD at 570 nm using a Multiskan SkyHigh microplate reader ^2. Results were expressed as the percentage of biofilm mass compared to that of control.

[3] = tested on: S. epidermidis ATCC 35984; assay: Biostability: growth inhibition in the presence of proteinase K; type: cell-based, Staphylococcus epidermidis; details: 0.01 mg/mL proteinase K
Experimental: Proteolysis of peptide by proteinase K was determined using the growth inhibition assay described by Jia et al.[28] with some modifications. […] After 6 and 24 h of incubation, the growth inhibitory effect was determined by measuring the absorbance at 620 nm using a Multiskan SkyHigh microplate reader. The percentage of relative survival rate was calculated as follows: Relativesurvivalrate%=AbsTreated/AbsUntreated×100 where AbsTreated was absorbance value of S. epidermidis cells after incubation with peptide in the presence of proteinase K, AbsUntreated was that of S. epidermidis cells incubated with ultrapure water in the presence of proteinase K.

[4] = tested on: human red blood cells (hRBCs); assay: Hemolytic activity; type: cell-based; details: 1 h at 37 °C, relative to Triton-X control
Experimental: The quantity of hemoglobin released by treatment was used as a measure of a peptide’s hemolytic activity against human red blood cells (hRBCs)[23]. Venous blood was collected from a healthy volunteer in plastic blood collection tubes with lithium heparin (BD Vacutainer™, USA) and centrifuged at 2000×g for 5 min to separate the plasma and buffy coat. The hRBCs obtained were washed at least three times and diluted to 4% (vol/vol) in phosphate-buffered saline (PBS; Caisson Laboratories, USA). The same volume of the hRBC suspension (50 µL) was incubated with twofold, serially diluted concentrations (0.98–250 μg/mL) of peptide dissolved in PBS for 1 h at 37 °C. The hRBCs incubated in 0.1% Triton X-100 and PBS were used as positive (100% hemolysis) and negative (0% hemolysis) controls, respectively. The release of hemoglobin into the supernatants was monitored by measurement of absorbance at 405 nm using a Multiskan SkyHigh microplate reader (Thermo Scientific™, Singapore). The percentage of hemolysis was calculated as previously described.

[5] = Cytotoxicity, MTT assay; type: cell-based, mouse; details: mouse, L929 mouse fibroblast cells (NCTC clone 929), L929, 24 h, read-out: cell viability
Experimental: (§3) The cytotoxicity of the candidate peptide on L929 mouse fibroblast cell lines (NCTC clone 929) were evaluated using the 3-(4,5-dimethylthiazol-2-yl)-2,5-diphenyltetrazolium bromide (MTT) assay following the published protocol. L929 cells (3–5 × 10^4) in RPMI 1640 medium, supplemented with 10% (vol/vol) heat-inactivated fetal bovine serum, 2 mM L-glutamine, 0.2% (wt/vol) sodium bicarbonate, 100 U/mL penicillin and […] streptomycin were placed into each well of 96-well plates and incubated in 5% CO2 at 37 °C overnight. After removal of media, the two-fold serially diluted peptide was added to achieve final concentrations of 0.98–250 µg/mL. Plates were then incubated at 37 °C under 5% CO2 for 24 h. The RPMI 1640 medium with and without L929 seeded cells were used as positive and negative controls, respectively. After treatment, MTT (Sigma-Aldrich, USA) was added to a final concentration of 0.5 mg/mL and suspensions incubated for 4 h at 37 °C under 5% CO2. Supernatants from each well were then discarded, and 150 µl of dimethyl sulfoxide (DMSO; Fisher BioReagents™, UK) was added and gently mixed to dissolve the crystallized formazan. Absorbance was measured at 570 nm using a Multiskan SkyHigh microplate reader. Cell viability (%) was estimated according to the following formula: Cellviability%=AbsTreated-AbsBlank/AbsUntreated-AbsBlank×100

[6] = tested on: L929 mouse fibroblast cells; assay: Cytotoxicity, MTT assay; type: cell-based; details: MTT, 24 h
Experimental: as §3

[7] = tested on: Pseudomonas aeruginosa ATCC 27853; type: cell-based
Experimental: as §1, §2

[8] = tested on: Staphylococcus aureus ATCC 25923; type: cell-based
Experimental: as §1, §2

[9] = tested on: Enterococcus faecalis ATCC 29219; type: cell-based
Experimental: as §1, §2

[10] = tested on: Klebsiella pneumoniae ATCC 27736; type: cell-based
Experimental: as §1, §2

[11] = tested on: Acinetobacter baumannii ATCC 19606; type: cell-based
Experimental: as §1, §2

Q: Which results are given for CN[C@H](CC(C)C)C(=O)N[C@H]1C(=O)N[C@@H](CC(N)=O)C(=O)N[C@H]2C(=O)N[C@H]3C(=O)N[C@H](C(=O)N[C@H](C(=O)O)c4cc(O)cc(O)c4-c4cc3ccc4O)[C@H](O)c3ccc(c(Cl)c3)Oc3cc2cc(c3O[C@@H]2O[C@H](CO)[C@@H](O)[C@H](O)[C@H]2O[C@H]2C[C@](C)(N)[C@H](O)[C@H](C)O2)Oc2ccc(cc2Cl)[C@H]1O [Vancomycin, Vancomycin hydrochloride, reference compound]?
A: MIC ([1]; Staphylococcus epidermidis, ATCC35984, MHB, 24 h at 37 °C, read-out: MIC, minimum inhibitory concentration): 3.91 µg/mL; MBC ([1]; Staphylococcus epidermidis, ATCC35984, colony count from non-turbid MIC wells, read-out: MBC, minimum bactericidal concentration): 7.81 µg/mL; effect on biofilm formation ([2]; at its MIC and MBC, 24 h): slightly induced biofilm formation; reduction of the biomass of biofilms ([2]; treatment with > 15.63 µg/mL for 24 h): more than 90%

Q: What does the source list for “H-KWKLFKKIGAVLKVL-NH2 [C(1–7)M(2–9), KWKLFKKIGAVLKVL-NH2, reference compound]”?
A: antibacterial activity in the presence of proteinase K ([3]; 24-h incubation, CM-10K14K at 31.25 and 62.5 µg/mL): lost its ability to kill bacteria; concentration inhibiting bacterial growth in the presence of proteinase K ([3]; 6 h of incubation): at least its MIC; MIC, minimum inhibitory concentration ([1]; 24 h at 37 °C): 7.81 µg/mL; MBC, minimum bactericidal concentration [1]: 7.81 µg/mL; HC50, concentration of peptide that causes 50% hemolysis [4]: 88.89 ± 4.62 µg/mL

Q: Which “MIC, minimum inhibitory concentration” value ([1]; 24 h at 37 °C) does the source give for “KWKLFKKIGAVLKVLA-NH2 [CM-A, KWKLFKKIGAVLKVLA-NH2]” here?
A: 7.81 µg/mL

Q: What about the “MBC, minimum bactericidal concentration” value [1] of the same compound?
A: 15.63 µg/mL

Q: What about the “HC50, concentration of peptide that causes 50% hemolysis” value [4] of the same compound?
A: 42.58 ± 1.98 µg/mL

Q: For “KWKLFKKIGKVLKKL-NH2 [CM-10K14K, KWKLFKKIGKVLKKL-NH2]”, which “MIC, minimum inhibitory concentration” value ([1]; 24 h at 37 °C) is on record?
A: 3.91 µg/mL

Q: And the “MBC, minimum bactericidal concentration” value [1]?
A: 7.81 µg/mL

Q: And the “HC50, concentration of peptide that causes 50% hemolysis” value [4]?
A: 561.90 ± 88.19 µg/mL

Q: And the viability at 24 h ([5]; at the MBC)?
A: 92.9 ± 1.82%

Q: And the viability at 24 h, 3.91 μg/mL ([5]; at the MIC)?
A: 100%

Q: What about the “IC50 on L929 cells” value [6] of the same compound?
A: 56.53 ± 1.84 µg/mL

Q: What about the MBC [7] of the same compound?
A: 62.5 µg/mL

Q: What about the MIC [7] of the same compound?
A: 15.63 µg/mL

Q: And the MBC [8]?
A: 7.81 µg/mL

Q: And the MIC [8]?
A: 7.81 µg/mL

Q: And the MBC [9]?
A: 31.25 µg/mL

Q: What about the MIC [9] of the same compound?
A: 31.25 µg/mL

Q: What about the MBC [10] of the same compound?
A: 31.25 µg/mL

Q: What about the MIC [10] of the same compound?
A: 15.63 µg/mL

Q: And the MBC [11]?
A: 15.63 µg/mL

Q: And the MIC [11]?
A: 7.81 µg/mL

Q: Which results are given for “KWKLFKKIGKVLKVL-NH2 [CM-10K, KWKLFKKIGKVLKVL-NH2]”?
A: MIC, minimum inhibitory concentration ([1]; 24 h at 37 °C): 3.91 µg/mL; MBC, minimum bactericidal concentration [1]: 7.81 µg/mL; HC50, concentration of peptide that causes 50% hemolysis [4]: 85.78 ± 9.01 µg/mL

Q: For “VWKLFKKIGAVLKKL-NH2 [CM-1V14K, VWKLFKKIGAVLKKL-NH2]”, which “MIC, minimum inhibitory concentration” value ([1]; 24 h at 37 °C) is on record?
A: 7.81 µg/mL

Q: What about the “MBC, minimum bactericidal concentration” value [1] of the same compound?
A: 15.63 µg/mL

Q: What about the “HC50, concentration of peptide that causes 50% hemolysis” value [4] of the same compound?
A: 131.70 ± 9.23 µg/mL

Q: With “VWKLFKKIGKVLKKL-NH2 [CM-1V10K14K, VWKLFKKIGKVLKKL-NH2]” as the compound, how does the “MIC, minimum inhibitory concentration” value ([1]; 24 h at 37 °C) read?
A: 3.91 µg/mL

Q: And the “MBC, minimum bactericidal concentration” value [1]?
A: 15.63 µg/mL

Q: What about the “HC50, concentration of peptide that causes 50% hemolysis” value [4] of the same compound?
A: 118.90 ± 8.19 µg/mL
